# In ChEMBL document CHEMBL6092138, “Discovery of the potent covalent inhibitor with an acrylate warhead for SARS-CoV-2 3CL protease” (Bioorg Med Chem Lett, 2024):
# Legend:
# [1] = molecular target: Replicase polyprotein 1ab (Severe acute respiratory syndrome coronavirus 2, UniProt P0DTD1); experiment: Inhibition of 6-his taggedSARS-Cov-2 3-CL protease using Dabcyl-KNSTLQSGLRKE-Edans as substrate preincubated for 60 mins followed by substrate addition by fluorescence based analysis
# Human coronavirus OC43 = experiment: Antiviral activity against HCoV OC43 infected in human Huh-7 cells assessed as inhibition of viral replication of CPE assay; type: functional, organism-based; conditions: Betacoronavirus 1, Huh-7
# Huh-7 = experiment: Cytotoxicity against human Huh-7 cells assessed as reduction in cell viability measured after 7 days by celltiter-glo assay; type: functional; conditions: Huh-7, 168 h, time 7 day
# [2] = molecular target: Replicase polyprotein 1ab (Severe acute respiratory syndrome coronavirus 2) (UniProt P0DTD1); experiment: Binding affinity to 6-his taggedSARS-Cov-2 3-CL protease assessed as Kinact/Ki using Dabcyl-KNSTLQSGLRKE-Edans as substrate measured for 120 mins
structure (smiles),measurement,setting,value
CC(C)C(=O)N[C@H](C(=O)N1C[C@H]2[C@@H]([C@H]1C(=O)N[C@H](C#N)C[C@@H]1CCNC1=O)C2(C)C)c1cc(Cl)c(OCCN(C)C)c(Cl)c1,IC50,[1],206 nM
CN(C)CCOc1c(Cl)cc([C@H](NC(=O)C(F)(F)F)C(=O)N2C[C@H]3[C@@H]([C@H]2C(=O)N[C@H](C#N)C[C@@H]2CCNC2=O)C3(C)C)cc1Cl,IC50,[1],631 nM
CC(C)(C)[C@H](NC(=O)C(F)(F)F)C(=O)N1C[C@H]2[C@@H]([C@H]1C(=O)N[C@H](/C=C/C(N)=O)C[C@@H]1CCNC1=O)C2(C)C,EC50,Human coronavirus OC43,9070 nM
same,CC50,Huh-7,> 10000 nM
same,IC50,[1],23.4 nM
same,K,[2],9750 M⁻¹ s⁻¹
CC(C)(C)[C@H](NC(=O)C(F)(F)F)C(=O)N1C[C@H]2[C@@H]([C@H]1C(=O)N[C@H](C#N)C[C@@H]1CCNC1=O)C2(C)C [NIRMATRELVIR],EC50,Human coronavirus OC43,72 nM
same,CC50,Huh-7,> 10000 nM
COC(=O)/C=C/[C@H](C[C@@H]1CCNC1=O)NC(=O)[C@@H]1[C@@H]2[C@H](CN1C(=O)[C@@H](NC(=O)C(F)(F)F)C(C)(C)C)C2(C)C,EC50,Human coronavirus OC43,97 nM
same,CC50,Huh-7,> 10000 nM
same,IC50,[1],28.9 nM
same,K,[2],17200 M⁻¹ s⁻¹
CN(C)CCOc1c(Cl)cc(C(NC(=O)C(C)(C)F)C(=O)N2C[C@H]3[C@@H]([C@H]2C(=O)N[C@H](C#N)C[C@@H]2CCNC2=O)C3(C)C)cc1Cl (stereo not given in full),IC50,[1],249 nM
CN(C)CCOc1c(Cl)cc([C@H](NC(=O)C(F)F)C(=O)N2C[C@H]3[C@@H]([C@H]2C(=O)N[C@H](C#N)C[C@@H]2CCNC2=O)C3(C)C)cc1Cl,IC50,[1],376 nM
CC(=O)/C(C)=C\[C@H](C[C@@H]1CCNC1=O)NC(=O)[C@@H]1[C@@H]2[C@H](CN1C(=O)[C@@H](NC(=O)C(F)(F)F)C(C)(C)C)C2(C)C,IC50,[1],50.7 nM
